Experimental data taken from patent US7414041B2 (Trustees Of Tufts College, priority 1991, dated 2008).
Where two headings read alike, the source gives them in different places.

Columns and labels:
[1] = biological target: T1, TET proteins responsible for tetracycline efflux (Class B tetracycline resistance determinant, strain D1-209) (Escherichia coli, UniProt P02980); assay: biochemical; parameters: species or system E. coli
T1 construct: Everted vesicles, to which the TET proteins responsible for tetracycline efflux are attached; endogenous in cells; host or cells: E. coli strain D1-209 (everted membrane vesicles)

[2] = test system: E. faecalis Tc^r (L) (ATCC9790r/Tet L); format: cell-based; settings: for MIC: Tc^r (L); for MLC: E. faecalis Tet L
[3] = test system: E. coli Class β Tc^r (DI-209); format: cell-based
[4] = test system: E. faecalis Tc^r (M) (ATCC9790r/Tet M); format: cell-based
[5] = test system: S. aureus Tc^s (RN450); assay: susceptibility testing MIC/MLC, drug alone; format: cell-based; settings: for MLC: kills 99.9%
[6] = test system: E. coli Class A Tc^r (DI-299); format: cell-based
[7] = test system: S. aureus Tc^r (RN4250); format: cell-based
[8] = test system: E. coli Tc^s (MI 300-225); assay: susceptibility testing MIC/MLC, drug alone; format: cell-based; settings: Tc^s
[9] = test system: E. faecalis Tc^s (ATCC9790r); assay: susceptibility testing MIC/MLC, drug alone; format: cell-based
[10] = test system: E. faecalis (Tet M); settings: E. faecalis (Class M)
[11] = test system: E. faecalis 158 (Tet L); assay: MIC/MLC chart, analog with and without doxycycline; format: cell-based
[12] = test system: S. aureus 4250 (Tet K); assay: MIC/MLC chart, analog with and without doxycycline; format: cell-based
[13] = test system: E. faecalis 211 (Tet M); assay: MIC/MLC chart, analog with and without doxycycline; format: cell-based;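 note: broth checkerboard of two-fold drug dilutions, alone and mixed with doxycycline, bacteria near 5×10^5 cells/ml, 18 h incubation at 37 °C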
[14] = test system: E. coli D1-299 (Tet A); format: cell-based;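 note: E. coli at roughly 5×10^5 cells/ml in L broth, analog and doxycycline alone or mixed in two-fold dilutions from 50 to under 1 µg/ml, 18 h at 37 °C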
[15] = doxycycline alone 1.56 μg/ml (Doxy Control)
[16] = doxycycline alone 3.12 μg/ml (Doxy Control)
[17] = doxycycline alone 6.25 μg/ml (Doxy Control)
[18] = doxycycline alone 12.5 μg/ml (Doxy Control)
[19] = uptake at 2.5 minutes, about 4 μM 3H-tetracycline, read-out: IC50

T1 sequence (P02980 whole entry): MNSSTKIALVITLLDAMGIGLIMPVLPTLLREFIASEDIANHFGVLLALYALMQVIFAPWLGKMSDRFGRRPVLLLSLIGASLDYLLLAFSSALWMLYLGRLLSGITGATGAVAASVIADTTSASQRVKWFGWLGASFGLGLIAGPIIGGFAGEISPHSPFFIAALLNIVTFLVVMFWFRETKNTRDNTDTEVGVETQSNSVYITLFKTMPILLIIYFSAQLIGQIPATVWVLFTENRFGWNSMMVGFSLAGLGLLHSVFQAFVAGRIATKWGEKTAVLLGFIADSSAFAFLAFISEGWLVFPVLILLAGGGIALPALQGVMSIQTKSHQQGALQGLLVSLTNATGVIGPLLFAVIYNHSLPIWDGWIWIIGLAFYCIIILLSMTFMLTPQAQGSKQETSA

Compound: CCCCCCCC(=O)O[C@H]1C2C(=C(O)C3(O)C(=O)C(C(N)=O)=C(O)[C@@H](N(C)C)C13)C(=O)c1c(O)cccc1C2C (some centres unmarked) [Cmpd 4]
- IC50 [1]: 9.3 µM

Compound: CC(C)SCC1c2cccc(O)c2C(=O)C2=C(O)C3(O)C(=O)C(C(N)=O)=C(O)C(N(C)C)C3C(O)C21 (centres unmarked) [Isopropyl]
- MIC ([2]; 1st column): 3 ± 1 µg
- MIC ([2]; 2nd column): 100 ± 0.25 µg
- MIC ([3]; 1st column): 35 ± 6 µg
- MIC ([3]; 2nd column): 46 ± 16 µg
- MIC ([4]; 2nd column): >200 µg
- MIC [5]: 0.5 ± 0.25 µg
- MLC [5]: 6 ± 2 µg
- MIC ([6]; 1st column): 46 ± 6 µg
- MIC ([6]; 2nd column): 60 µg
- MIC ([7]; Tc^r RN4250): 4.5 ± 0.5 µg
- MLC ([7]; Tc^r RN4250, kills 99.9%): 8 µg
- MIC ([8]; 1st column): 22 ± 2 µg
- MIC ([8]; 2nd column): 60 µg
- MIC ([9]; 1st column): 3 ± 1 µg
- MIC ([9]; 2nd column): 20 ± 0.26 µg

Compound: 6-deoxy-13-(benzyl mercapto) tetracycline
- MLC [2]: 8 ± 2 µg/mL
- MIC ([2]; 1st column): 0.76 ± 0.26 µg
- MIC ([3]; 1st column): 30 ± 0.26 µg
- MIC ([3]; 2nd column): 60 ± 10 µg
- MIC ([4]; 1st column): 3.6 ± 1 µg
- MIC [5]: 0.2 ± 0.1 µg
- MLC [5]: 10 ± 2 µg
- MIC ([6]; 1st column): 46 ± 20 µg
- MIC ([6]; 2nd column): 160 ± 60 µg
- synergistic activity with tetracycline [10]: little, if any synergistic activity
- MIC ([8]; 1st column): 16 ± 6 µg
- MIC ([8]; 2nd column): 26 ± 6 µg
- MIC ([9]; 1st column): 0.6 ± 0.25 µg
- MIC ([9]; 2nd column): 8 ± 0.26 µg

Compound: CN(C)c1ccc(O)c2c1C[C@H]1C[C@H]3[C@H](N(C)C)C(=O)C(C(N)=O)=C(O)[C@@]3(O)C(=O)C1=C2O [Minocycline, reference compound]
- MIC ([2]; 1st column): <0.26 µg
- MIC ([2]; 2nd column): >80 µg
- MIC ([3]; 1st column): 6 ± 2 µg
- MIC ([3]; 2nd column): 30 ± 10 µg
- MIC ([4]; 1st column): 10 µg
- MIC ([4]; 2nd column): >80 µg
- MIC [5]: <0.25 µg
- MLC [5]: 8 µg
- MIC ([6]; 1st column): <4 µg
- MIC ([6]; 2nd column): 20 µg
- MIC ([7]; Tc^r RN4250): <0.25 µg
- MLC ([7]; Tc^r RN4250, kills 99.9%): >80 µg
- MIC ([8]; 1st column): <4 µg
- MIC ([8]; 2nd column): <4 µg
- MIC ([9]; 1st column): <0.26 µg
- MIC ([9]; 2nd column): >40 µg

Compound: CN(C)C1C(O)=C(C(N)=O)C(=O)C2(O)C(O)=C3C(=O)c4c(O)cccc4C(C)(O)C3CC12 (centres unmarked) [Tetracycline, 4-(Dimethylamino)-1,4,4a,5,5a,6-11,12a-octahydro-3,6,10,12,12a-pentahydroxy-6-methyl-1-11-dioxo-2-naphth acenecarboxamide, reference compound]
- MIC ([2]; 1st column): 90 ± 10 µg
- MIC ([2]; 2nd column): >300 µg
- MIC ([3]; 1st column): >200 µg
- MIC ([3]; 2nd column): >200 µg
- MIC ([4]; 1st column): 100 µg
- MIC ([4]; 2nd column): 300 µg
- MIC [5]: 0.75 ± 0.25 µg
- MLC [5]: >6 µg
- MIC ([6]; 1st column): 160 ± 0.26 µg
- MIC ([6]; 2nd column): 200 µg
- MIC ([7]; Tc^r RN4250): 90 ± 10 µg
- MLC ([7]; Tc^r RN4250, kills 99.9%): 100 µg
- MIC ([8]; 1st column): 0.6 ± 0.26 µg
- MIC ([8]; 2nd column): 40 ± 0.26 µg
- MIC ([9]; 1st column): 0.26 µg
- MIC ([9]; 2nd column): >200 µg

Compound: CC1c2cccc(O)c2C(=O)C2=C(O)C3(O)C(=O)C(C(N)=O)=C(O)[C@@H](N(C)C)C3[C@@H](OC(=O)CCC(=O)O)C21 (some centres unmarked) [Cmpd 6]
- IC50 [1]: 2 µM

Compound: 6-deoxy-13-(cyclopentyl mercapto) tetracycline
- MIC ([2]; 1st column): 1 ± 0.6 µg
- MIC ([3]; 1st column): 60 ± 40 µg
- MIC ([3]; 2nd column): 100 ± 60 µg
- MIC ([4]; 1st column): 3 ± 1 µg
- MIC [5]: 1 µg
- MLC [5]: 5 µg
- MIC ([6]; 1st column): 40 ± 0.26 µg
- MIC ([6]; 2nd column): 60 µg
- MLC ([7]; resistant S. aureus): 6 ± 2 µg/mL
- synergistic activity with tetracycline [10]: little, if any synergistic activity
- MIC ([8]; 1st column): 20 µg
- MIC ([8]; 2nd column): 60 µg
- MIC ([9]; 1st column): 1 ± 0.26 µg
- MIC ([9]; 2nd column): 10 ± 4 µg

Compound: CN(C)[C@@H]1C(O)=C(C(N)=O)C(=O)C2(O)C(O)=C3C(=O)c4c(O)cccc4C(CSC4CCCC4)C3[C@H](OC(=O)C3CCCCC3)C12 (some centres unmarked) [Cmpd 9]
- IC50 [1]: > 30 µM

Compound: C[C@H]1c2cccc(O)c2C(O)=C2C(=O)[C@]3(O)C(O)=C(C(N)=O)C(=O)[C@@H](N(C)C)[C@@H]3[C@@H](O)[C@@H]21 [Doxy, Doxycycline, reference compound]
- MIC/MLC chart symbol ([11]; Chart 6C, Doxy Control (doxycycline alone), μg/ml = number in line above): +
- growth / no growth (MIC) / killing (MLC) symbol ([11]; doxy alone 1.56 μg/ml): +
- growth / no growth (MIC) / killing (MLC) symbol ([11]; doxy alone 3.12 μg/ml): +
- growth / no growth (MIC) / killing (MLC) symbol ([11]; doxy alone 6.25 μg/ml): +
- growth / no growth (MIC) / killing (MLC) symbol ([11]; doxy alone 12.5 μg/ml): ↓
- MIC/MLC chart: growth or killing [11, 15]: +
- MIC/MLC chart: growth or killing [11, 16]: +
- MIC/MLC chart: growth or killing [11, 17]: +
- MIC/MLC chart symbol ([12]; Chart 6B, Doxy Control (doxycycline alone), μg/ml = number in line above): +
- growth / no growth (MIC) / killing (MLC) symbol ([12]; doxy alone 1.56 μg/ml): +
- growth / no growth (MIC) / killing (MLC) symbol ([12]; doxy alone 3.12 μg/ml): +
- growth / no growth (MIC) / killing (MLC) symbol ([12]; doxy alone 6.25 μg/ml): +
- growth / no growth (MIC) / killing (MLC) symbol ([12]; doxy alone 12.5 μg/ml): +
- MIC/MLC chart: growth or killing [12, 15]: +
- MIC/MLC chart: growth or killing [12, 16]: +
- MIC/MLC chart: growth or killing [12, 17]: +
- MIC/MLC chart: growth or killing [12, 18]: ◯
- MIC/MLC chart symbol ([13]; Chart 6D, Doxy Control (doxycycline alone), μg/ml = number in line above): ↓ and +
- growth / no growth (MIC) / killing (MLC) symbol ([13]; doxy alone 1.56 μg/ml): +
- growth / no growth (MIC) / killing (MLC) symbol ([13]; doxy alone 3.12 μg/ml): +
- growth / no growth (MIC) / killing (MLC) symbol ([13]; doxy alone 6.25 μg/ml): +
- growth / no growth (MIC) / killing (MLC) symbol ([13]; doxy alone 12.5 μg/ml): +
- growth / no growth (MIC) / killing (MLC) symbol ([13]; doxy alone 25 μg/ml): ↓
- MIC/MLC chart: growth or killing [13, 15]: +
- MIC/MLC chart: growth or killing [13, 16]: +
- MIC/MLC chart: growth or killing [13, 17]: +
- MIC/MLC chart: growth or killing [13, 18]: +
- MIC/MLC chart symbol ([14]; Chart 6A, Doxy Control (doxycycline alone), μg/ml = number in line above): ◯ and +
- growth / no growth (MIC) / killing (MLC) symbol ([14]; doxy alone 1.56 μg/ml): +
- growth / no growth (MIC) / killing (MLC) symbol ([14]; doxy alone 3.12 μg/ml): +
- growth / no growth (MIC) / killing (MLC) symbol ([14]; doxy alone 6.25 μg/ml): +
- growth / no growth (MIC) / killing (MLC) symbol ([14]; doxy alone 12.5 μg/ml): +
- growth / no growth (MIC) / killing (MLC) symbol ([14]; doxy alone 25 μg/ml): ◯
- MIC/MLC chart: growth or killing [14, 15]: +
- MIC/MLC chart: growth or killing [14, 16]: +
- MIC/MLC chart: growth or killing [14, 17]: +
- MIC/MLC chart: growth or killing [14, 18]: +
- MIC/MLC chart: growth or killing ([14]; doxycycline alone 25.0 μg/ml (Doxy Control)): +

Compound: CN(C)[C@@H]1C(O)=C(C(N)=O)C(=O)C2(O)C(O)=C3C(=O)c4c(O)cccc4C(CSC4CCCC4)C3[C@H](OC(=O)C3CCCC3)C12 (some centres unmarked) [Cmpd 10]
- IC50 [1, 19]: > 30 µM

Compound: C=C1c2cccc(O)c2C(=O)C2=C(O)C3(O)C(=O)C(C(N)=O)=C(O)C(N(C)C)C3C(OC(=O)C3CC3)C12 (centres unmarked) [Cmpd 11, 5 cyclopropanoate methacycline]
- IC50 [1]: 9.4 µM

Compound: CC1c2cccc(O)c2C(=O)C2=C(O)C3(O)C(=O)C(C(N)=O)=C(O)[C@@H](N(C)C)C3[C@@H](OCCCN)C21 (some centres unmarked) [Cmpd 7]
- IC50 [1, 19]: 6.4 µM

Compound: 6-deoxy-13-(cyclohexyl mercapto) tetracycline
- MLC [2]: 8 ± 2 µg/mL
- MIC ([2]; 1st column): 1.6 ± 0.6 µg
- MIC ([4]; 1st column): 2.6 ± 0.6 µg
- MIC [5]: 2.5 ± 1.25 µg
- MLC [5]: 10 ± 5 µg
- MIC ([6]; 1st column): 100 ± 0.26 µg
- MIC ([6]; 2nd column): >200 µg
- synergistic activity with tetracycline [10]: little, if any synergistic activity
- MIC ([8]; 1st column): 60 ± 10 µg
- MIC ([8]; 2nd column): 120 µg
- MIC ([9]; 1st column): 1.26 ± 0.26 µg
- MIC ([9]; 2nd column): 8 µg
